Measured values: PubChem BioAssay AID449762 (Southern Research Specialized Biocontainment Screening …, 2010)
Inconclusive results are not listed. Where a SMILES comes first, the peptide text is derived from it. [ ]: non-standard residue; d: D form. The star is where a group is joined. ξ: configuration not given here. ξF = NC(Cc1ccccc1)C(=O)O; Cbz = O=C(OCc1ccccc1)*

Test system: M. tuberculosis H37Rv growth inhibition, 7H9 media
Assay: M. tuberculosis growth inhibition, HTS (AID 449762);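 also: bacterial growth assessed after seven days of incubation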
Conditions: for IC90: measured here: IC90 growth inhibition

Compound	IC50	IC90
CC1(c2nnc(-c3ccncc3)o2)CC(c2ccccc2)=NO1 (configuration not stated)	63.3 µM	> 100 µM
Cc1cc(C)c2cc(C(=O)Nc3ccc(C)c(F)c3)[nH]c2c1	0.94 µM	1.69 µM
Cc1nn(C(C)(C)C)c(NC(=O)c2ccc(Cl)cc2Cl)c1Br	2.97 µM	> 100 µM
Cc1cc(=O)oc2c(C)c(OCC(=O)N3CCN(C(=O)C4COc5ccccc5O4)CC3)ccc12 (configuration not stated)	61.5 µM	86.1 µM
CC1(C)Cc2c(C#N)c(N3CCN(C(=O)c4ccccc4)CC3)nc(Cc3ccccc3)c2CO1	28.8 µM	> 100 µM
COc1ccc(C(C(O)C(=O)c2c[nH]c3ccccc23)N2CCN(c3ccc(OC)cc3)CC2)cc1 (configuration not stated)	100 µM	> 100 µM
Nc1cc(Cl)c2nonc2c1[N+](=O)[O-]	5.83 µM	6.64 µM
CCOc1ccc(/C=N/Nc2ccc(Cl)nn2)c(O)c1	4.49 µM	7.48 µM
O=C(Nc1nc2ccccc2[nH]1)C12CC3CC(CC(C3)C1)C2	10.3 µM	34.5 µM
Nc1ccc(-c2nc3nc(N)nc(N)c3nc2-c2ccc(N)cc2)cc1	43 µM	57.5 µM
O=C(Oc1c(Cl)cc(Cl)c2cccnc12)c1cccs1	0.89 µM	1.24 µM
CC(=O)c1cccc(NC(=S)NC2CCCCCCC2)c1	23.6 µM	26.2 µM
COCCN(C(=O)C1CC(=O)N(Cc2ccccc2)C1)c1nc(-c2ccc([N+](=O)[O-])cc2)cs1 (configuration not stated)	24.5 µM	25.4 µM
COc1ccc(C(=O)COC(=O)[C@H](C)Nc2ccc(C(F)(F)F)cc2[N+](=O)[O-])cc1	11.2 µM	> 25 µM
CCc1ccc2[nH]c(=O)c(CN(CCCN3CCOCC3)C(=O)Nc3cccc(Cl)c3)cc2c1	24.1 µM	30.4 µM
Cc1ccc(OCc2cc(C(=O)N(C)Cc3cnc4ccccn34)no2)cc1C	19.6 µM	32 µM
COc1cc2c(cc1OC)CN(CCC(=O)c1ccc(Br)cc1)CC2	12.1 µM	13.7 µM
Cc1nc2ccccc2c2nc3ccccc3n12	33.8 µM	55.2 µM
COc1ccc(C2CC(=O)c3cnc(Nc4cc(C)cc(C)c4)nc3C2)cc1 (configuration not stated)	12.3 µM	22.4 µM
CC(=O)/C=C(\C)Nc1ccccc1O	3.57 µM	6.18 µM
CCN(CC)C(=O)c1cc([N+](=O)[O-])cc2c1-c1ccc([N+](=O)[O-])cc1C2=C(C#N)C#N	21.3 µM	23.8 µM
O=C(C1CC1)N1CCCC(c2ccc(Cl)cc2)=N1	33.1 µM	50.2 µM
Cc1ccc(NC(=O)CCl)cc1S(=O)(=O)N1CCCCCC1	2.6 µM	5.03 µM

Compound	IC50	IC90
Oc1ccc(/C=N/NC(=S)N2CCOCC2)cc1	4.2 µM	6.19 µM
CNc1ncnc2c1ncn2[C@@H]1O[C@H](CO)[C@@H](O)[C@H]1O	2.68 µM	5.73 µM
COC(=O)/C(=C1/Oc2cc(C)oc(=O)c2S1)C(F)(F)F	6.24 µM	> 100 µM
Cn1/c(=N/NC(=O)c2cccc(OC(F)F)c2)sc2ccccc21	2 µM	22.7 µM
O=C(/C=C/c1cn(-c2ccccc2)nc1-c1cccnc1)c1ccco1	14.8 µM	46.6 µM
C/C(=N/Nc1ccnc2cc(Cl)ccc12)c1ccc(O)cc1	23.7 µM	27.2 µM
COc1ccc(C(=O)c2c(C(F)(F)F)oc3c2C(=O)c2ccccc2C3=O)cc1OC	12 µM	17.7 µM
Cc1oc2c(c1C(=O)NCc1cccnc1)C(=O)c1ccccc1C2=O	9.78 µM	13.9 µM
N#CC(C#N)=C(N)CSc1cccc[n+]1[O-]	6.25 µM	11 µM
CCc1ccc(NCc2ccc(OC)c(Cn3ccnc3)c2)cc1	21.5 µM	23.9 µM
O=C1N/C(=N\N=C\c2ccccn2)SC1Cc1cccc(SC(F)F)c1 (configuration not stated)	73.1 µM	> 100 µM
C=CCOc1ccc(C2C(C#N)=C(N)N(Nc3ccccc3)C3=C2C(=O)CC(C)(C)C3)cc1OC (configuration not stated)	30.1 µM	68.2 µM
O=C(CN1CCN(Cc2ccc(Cl)cc2)CC1)N/N=C/C=C/c1ccccc1[N+](=O)[O-]	26.8 µM	37.6 µM
N#C/C(N=Nc1ccccc1O)=N\Nc1ccccc1O	< 0.2 µM	1.65 µM
CN(Cc1ccc(Br)cc1)C(=O)CCN1C(=O)c2cccc([N+](=O)[O-])c2C1=O	29.1 µM	> 100 µM
CC1CC2=C(CC1/C=N/NC(N)=S)C(C)(C)CCC2 (configuration not stated)	14.4 µM	24.6 µM
Cc1ccc(N(CCC#N)C(=O)CCl)cc1C	0.98 µM	4.41 µM
O=C(CCn1c(=O)c2cccn2c2cccnc21)N1CCN(c2cccc(Cl)c2)CC1	30.6 µM	41.8 µM
C=CCSc1n[nH]c(-c2ccc(OCCCC)cc2)n1	15.8 µM	39.2 µM
O=C(/C=C/c1ccco1)Oc1ccc(C(=S)N2CCOCC2)cc1	38.7 µM	> 100 µM
Oc1ccc2ccccc2c1N=Nc1nccs1	< 0.2 µM	2.01 µM
Nc1ccc(Oc2ccc(F)cc2)nc1	60.6 µM	90.1 µM
Cc1ccc(-c2ccc(/C=N/c3ncn[nH]3)o2)cc1Cl	98.8 µM	> 100 µM

Compound	IC50	IC90
c1ccc(Nc2nc(N3CCCCC3)nc(N3CCNCC3)n2)cc1	46.1 µM	68.9 µM
O=C(c1cccc([N+](=O)[O-])c1)N1CCN(c2ccc(N3CCOCC3)nn2)CC1	19.7 µM	26.6 µM
CCCCCCC[N+](CC)(CC)CCCCc1ccc(Cl)cc1	24.7 µM	27.8 µM
O=C(COC(=O)C1=COCCO1)NCc1ccc(Cl)cc1	14.8 µM	> 100 µM
CC(C)NC(=O)c1onc(CSc2ccc(F)c(F)c2)c1C(=O)O	11 µM	18.9 µM
COc1cccc(Nc2ccc([N+](=O)[O-])c3nonc23)c1	9.43 µM	13.6 µM
CCCn1c(=N)c(C(=O)NCc2ccc3c(c2)OCO3)cc2c(=O)n3cccc(C)c3nc21	19.8 µM	29 µM
CCOC(=O)CNC(=O)C(Cc1ccccc1)NC(=O)OCc1ccccc1 (configuration not stated) (Cbz-[ξF]-Gly-OEt)	2.22 µM	3.36 µM
N#C/C(=C\c1ccc(-c2ccc(Br)cc2)o1)C(=O)NCCc1c[nH]c2ccccc12	96.1 µM	> 100 µM
CSCCC(=O)N1CCCC(CNC(=O)c2ccc(-c3ccccc3)cc2)C1 (configuration not stated)	39.1 µM	87.8 µM
Cc1ncc(C23CC4CC(CC(C4)C2)C3)[nH]1	49.9 µM	51.5 µM
COc1ccccc1N(O)C1CC(=O)N(c2ccc(Br)cc2)C1=O (configuration not stated)	16.8 µM	32.3 µM
COc1ccccc1C1CCN(Cc2ccc3ccccc3c2)CC1	15.7 µM	21.8 µM
Cc1ccc(-n2nc(C)c3c(C)c(CCC(=O)Nc4ccc(CN5CCCC5)cc4)c(C)nc32)cc1	13.4 µM	19.9 µM
Cc1ccc(OC(=O)c2oc3ccc(F)cc3c2C)c(C)c1	6.82 µM	18.6 µM
CC(=O)O[C@H]1C[C@@]2(C)[C@@H](C[C@@H](O)[C@H]3[C@@]4(C)CC[C@@H](O)[C@@H](C)[C@@H]4CC[C@@]32C)/C1=C(\CCC=C(C)C)C(=O)O	1.6 µM	4.42 µM
CCOc1cccc(C=Nc2cc(C)cc(C)c2O)c1O	13.6 µM	29.2 µM
O=C1CCC(=O)N1CNc1ccc(Oc2ccccc2)cc1	–	> 100 µM
CCc1cc2c(=O)n(C(C)C(=O)OC3CCCCC3)cnc2s1 (configuration not stated)	17.8 µM	27.8 µM
CC(=O)c1c(N2CCCC2)[nH]c(-c2ccccc2)nc1=S	16.2 µM	67.1 µM
CC(c1ccccc1)N1CCN(C(=O)CCl)CC1 (configuration not stated)	1.26 µM	3.24 µM
Cc1c(C(=O)Oc2cccc3ccccc23)cnn1-c1ccccc1	23.7 µM	26.9 µM
O=C(OCC(=O)c1cccs1)C1=COCCO1	21.4 µM	> 100 µM

Compound	IC50	IC90
CCOC(=O)N1CCC(n2c(SCC(=O)OCc3ccccc3)nc3ccsc3c2=O)CC1	27.1 µM	> 100 µM
O=C(/C=C/c1ccco1)Nc1cccc(-c2nc3ccccc3[nH]2)c1	78.5 µM	> 100 µM
N#Cc1c([N+](=O)[O-])cc([N+](=O)[O-])cc1S(=O)(=O)Cc1ccccc1	15.3 µM	22.6 µM
COc1ccccc1-c1cc(C(=O)NC2CCN(C)CC2)c2ccc(Cl)c(C)c2n1	70.9 µM	95 µM
FC(F)(F)c1cc(CO[C@@H]2CCCN[C@@H]2c2ccccc2)cc(C(F)(F)F)c1	24.5 µM	28.8 µM
C/C(=N\Nc1ccc(Cl)c(Cl)c1)c1ccc(-n2ccnc2)cc1	65.8 µM	86.4 µM
CN1C(=S)SC(N(O)C(=O)Nc2ccc(Cl)c(Cl)c2)C1(C)C (configuration not stated)	22.8 µM	25.6 µM
CCOC(=O)C(C)Oc1ccc(OCc2ccccc2)cc1 (configuration not stated)	4.2 µM	10.9 µM
CCOC1OC(=O)C(Cl)=C1Nc1ccccc1C (configuration not stated)	2.91 µM	6.18 µM
Cc1cc(C)n2nc(/C(C#N)=C/c3ccccn3)c(C#N)c2n1	0.97 µM	17.6 µM
Clc1nc2c(-c3ccccc3)nnn2c2ccccc12	9.39 µM	16.6 µM
O=C(Oc1ccccc1-c1nnco1)c1ccc(Cl)cc1	10.3 µM	44.7 µM
CC1CN(c2ccc([N+](=O)[O-])c(NCCOc3ccc(Cl)cc3)c2)CC(C)N1 (configuration not stated)	9.19 µM	12.8 µM
Cc1ccc(S(=O)(=O)/N=C(\CCl)N2CCOCC2)cc1	6.44 µM	14.9 µM
CC1CN(C(=S)SCC(=O)c2ccc([N+](=O)[O-])cc2)CC(C)O1 (configuration not stated)	27 µM	> 100 µM
O=C(OCC(=O)N1CCCc2ccccc21)c1ccc(S(=O)(=O)C(F)F)cc1	24.1 µM	38 µM
C/C(=N\NC(=O)COc1ccc(C)cc1Br)c1cc([N+](=O)[O-])cs1	4.07 µM	34.1 µM
CCOc1cc(C=O)cc(N=Nc2cccc([N+](=O)[O-])c2)c1O	3.98 µM	11.6 µM
CCCCCc1nc2c(c(=O)c3ccccc3n2C)c(=O)n1C1CCCCCC1	30 µM	> 100 µM
COc1cccc(-c2cc3nc4c(c(NCC(C)(C)CN(C)C)n3n2)CCCC4)c1	22 µM	28.2 µM
